According to publication PMC3125149, “SCYX-7158, an Orally-Active Benzoxaborole for the Treatment of Stage 2 Human African Trypanosomiasis” (PLoS Neglected Tropical Diseases, 2011):
Converted amounts (≈) assume the structure as drawn.

What was measured:
[1] = test system: T. b. brucei EATRO 110 strain; test: Efficacy in the mouse model for acute HAT; format: in vivo
Procedure: For efficacy studies against acute infections, groups of 3–5 female Swiss Webster mice (Ace Animals, Boyertown, PA) were injected intraperitoneally (i.p.) with freshly drawn infected rat blood containing 2.5×10^5 trypanosomes (T. b. brucei EATRO 110 strain). The infection was allowed to progress for 24 h before treatment. Test compound was then given daily by bolus i.p. injection or oral gavage. Oxaborole compounds were formulated in 2% ethanol/5% dextrose and were given at a dose volume of 200 µL (containing 1.25 to 50 mg/kg) for a 25 g animal. Animals were monitored daily for signs of compound toxicity and clinical signs of trypanosomiasis for a period of 30 days. Mice were checked for parasitemia once per week by microscopic examination of smears prepared from the tail vein blood of animals. Animals remaining parasite free for more than 30 days beyond the end of the treatment period were considered cured. Control untreated animals typically succumbed to the infection within 4–5 days following i.p. inoculation with parasites.

Aqueous solubility = format: physicochemical; conditions: pH 7.4 PBS
From the text: Table 3 In vitro physicochemical and ADME properties of SCYX-7158. | column: Value

>100 biochemical targets = test: Array of in vitro receptor binding and enzyme inhibition assays; conditions: test concentration 10 µM
[2] = biological target: T1, hERG channel expressed in HEK-293 cells (Homo sapiens, UniProt Q12809); test: hERG whole-cell patch clamp; format: cell-based
T1 construct: expressed in transfected cells; host or cells: HEK-293
T1 sequence (Q12809 whole entry): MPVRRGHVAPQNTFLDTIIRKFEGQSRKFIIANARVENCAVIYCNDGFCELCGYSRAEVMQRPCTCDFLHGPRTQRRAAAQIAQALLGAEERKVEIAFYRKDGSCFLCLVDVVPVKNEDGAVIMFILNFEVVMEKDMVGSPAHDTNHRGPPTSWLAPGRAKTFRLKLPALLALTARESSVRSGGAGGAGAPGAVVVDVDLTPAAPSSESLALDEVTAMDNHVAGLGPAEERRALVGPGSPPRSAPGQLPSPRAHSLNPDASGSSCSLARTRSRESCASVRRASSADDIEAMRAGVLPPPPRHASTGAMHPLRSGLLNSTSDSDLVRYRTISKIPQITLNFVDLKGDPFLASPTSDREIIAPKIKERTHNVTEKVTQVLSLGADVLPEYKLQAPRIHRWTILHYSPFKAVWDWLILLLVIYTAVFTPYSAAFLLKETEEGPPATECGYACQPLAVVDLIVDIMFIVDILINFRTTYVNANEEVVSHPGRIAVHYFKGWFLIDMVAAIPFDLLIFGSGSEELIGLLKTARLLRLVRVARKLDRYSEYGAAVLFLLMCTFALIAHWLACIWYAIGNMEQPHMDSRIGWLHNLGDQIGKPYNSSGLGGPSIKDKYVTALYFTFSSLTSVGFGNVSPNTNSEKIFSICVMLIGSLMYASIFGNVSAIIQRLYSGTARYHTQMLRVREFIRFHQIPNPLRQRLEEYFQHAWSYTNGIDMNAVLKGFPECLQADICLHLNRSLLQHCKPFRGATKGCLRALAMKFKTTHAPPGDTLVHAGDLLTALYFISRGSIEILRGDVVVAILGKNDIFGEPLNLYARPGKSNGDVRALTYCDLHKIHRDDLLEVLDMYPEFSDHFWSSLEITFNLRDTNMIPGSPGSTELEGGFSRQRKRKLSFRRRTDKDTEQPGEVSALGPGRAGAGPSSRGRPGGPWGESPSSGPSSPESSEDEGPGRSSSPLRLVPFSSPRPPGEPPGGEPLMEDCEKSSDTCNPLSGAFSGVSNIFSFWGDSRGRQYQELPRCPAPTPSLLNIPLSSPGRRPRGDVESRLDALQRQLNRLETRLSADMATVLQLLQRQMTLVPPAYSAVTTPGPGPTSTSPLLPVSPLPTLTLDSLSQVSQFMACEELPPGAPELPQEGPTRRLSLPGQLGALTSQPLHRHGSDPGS

[3] = Pharmacokinetics in uninfected rats; format: in vivo, rat; conditions: male, Sprague-Dawley, rat
Procedure: (§1) The blood distribution, CNS disposition and pharmacokinetics of SCYX-7158 were evaluated in infected or non-infected rodents following intravenous or oral administration of compounds. Pharmacokinetics and bioavailability of SCYX-7158 were also evaluated in non-infected beagle dogs and cynomolgus monkeys. In-life phases of non-infected rodent studies were performed at Vivisource (Waltham, MA); studies in non-naïve cynomolgus monkeys were performed by SNBL USA (Everett, WA). Male CD-1 mice (∼25 g), male Sprague-Dawley rats (∼225 g), or male cynomolgus monkeys (∼3–5 kg) were administered test article by either bolus intravenous injection (IV) or oral gavage. Animals in the IV groups received a single 2 mg/kg IV dose. Animals received oral doses of test articles as either single or twice daily doses ranging from 8 mg/kg to 50 mg/kg. All doses were administered as clear colorless solutions in either 50% (v/v) PEG 400: 20% (v/v) ethanol: 30% (v/v) carboxymethylcellulose (0.5% w/v in sterile water for injection) or 2% (v/v) ethanol: 5% (w/v) dextrose in sterile water for injection. […] For pharmacokinetic analysis, blood samples were collected from mice via cardiac puncture under terminal anaesthesia. Serial blood samples were collected from rats via a vascular access port located in the lateral saphenous vein. Mice and rats were euthanized in a CO2 chamber before collection of terminal blood samples or brain tissue. Blood samples were collected into polypropylene tubes containing K2EDTA anticoagulant and stored on ice until centrifuged for the preparation of plasma. Plasma was stored at −70°C. Whole brains were collected following decapitation, blotted dry, placed into polypropylene containers and then immediately frozen at approximately −70°C. CSF was collected from rats via cisterna magna puncture, placed in sterile polypropylene tubes, and stored at approximately −70°C. […] Treated samples were gently mixed at room temperature for 10 min, and then centrifuged at approximately 3000×g for 15 min at 15°C. The supernatants were transferred to 96-well plates or HPLC vials for analysis by LC-MS/MS. Pharmacokinetic parameters were calculated from composite mean plasma or tissue data using non-compartmental (oral and intravenous routes) and bi-exponential (intravenous route) analyses in Microsoft Excel.

[4] = Pharmacokinetics in cynomolgus monkeys; format: in vivo, cynomolgus monkey
Procedure: as §1

[5] = Pharmacokinetics in uninfected mice; format: in vivo, mouse

CC1(C)OB(O)c2cc(NC(=O)c3ccc(F)cc3C(F)(F)F)ccc21 [SCYX-7158]
% Cured ([1]; 1.25 mg/kg BID, 4 days, PO): 0%
Avg. Days Parasite-Free ([1]; 1.25 mg/kg BID, 4 days, PO): 8 days
Cured/Total ([1]; 1.25 mg/kg BID, 4 days, PO): 0/5
% Cured ([1]; 1.25 mg/kg QD, 4 days, PO): 0%
Avg. Days Parasite-Free ([1]; 1.25 mg/kg QD, 4 days, PO): 4.4 days
Cured/Total ([1]; 1.25 mg/kg QD, 4 days, PO): 0/5
% Cured ([1]; 2.5 mg/kg BID, 4 days, PO): 100%
Avg. Days Parasite-Free ([1]; 2.5 mg/kg BID, 4 days, PO): >30 days
Cured/Total ([1]; 2.5 mg/kg BID, 4 days, PO): 5/5
% Cured ([1]; 2.5 mg/kg QD, 4 days, PO): 0%
Avg. Days Parasite-Free ([1]; 2.5 mg/kg QD, 4 days, PO): 8.4 days
Cured/Total ([1]; 2.5 mg/kg QD, 4 days, PO): 0/5
% Cured ([1]; 5 mg/kg BID, 4 days, PO): 100%
Avg. Days Parasite-Free ([1]; 5 mg/kg BID, 4 days, PO): >30 days
Cured/Total ([1]; 5 mg/kg BID, 4 days, PO): 5/5
% Cured ([1]; 5 mg/kg QD, 1 day, IP): 0%
Avg. Days Parasite-Free ([1]; 5 mg/kg QD, 1 day, IP): 6 days
Cured/Total ([1]; 5 mg/kg QD, 1 day, IP): 0/3
% Cured ([1]; 5 mg/kg QD, 4 days, PO): 100%
Avg. Days Parasite-Free ([1]; 5 mg/kg QD, 4 days, PO): >30 days
Cured/Total ([1]; 5 mg/kg QD, 4 days, PO): 5/5
% Cured ([1]; 10 mg/kg BID, 4 days, PO): 100%
Avg. Days Parasite-Free ([1]; 10 mg/kg BID, 4 days, PO): >30 days
Cured/Total ([1]; 10 mg/kg BID, 4 days, PO): 5/5
% Cured ([1]; 10 mg/kg QD, 1 day, IP): 0%
Avg. Days Parasite-Free ([1]; 10 mg/kg QD, 1 day, IP): 9.3 days
Cured/Total ([1]; 10 mg/kg QD, 1 day, IP): 0/3
% Cured ([1]; 10 mg/kg QD, 4 days, PO): 100%
Avg. Days Parasite-Free ([1]; 10 mg/kg QD, 4 days, PO): >30 days
Cured/Total ([1]; 10 mg/kg QD, 4 days, PO): 5/5
% Cured ([1]; 25 mg/kg QD, 1 day, IP): 100%
Avg. Days Parasite-Free ([1]; 25 mg/kg QD, 1 day, IP): >30 days
Cured/Total ([1]; 25 mg/kg QD, 1 day, IP): 3/3
% Cured ([1]; 25 mg/kg QD, 1 day, PO): 33%
Avg. Days Parasite-Free ([1]; 25 mg/kg QD, 1 day, PO): 8.3 days
Cured/Total ([1]; 25 mg/kg QD, 1 day, PO): 1/3
solubility (Aqueous solubility): 25 µM (≈ 9.18 µg/mL)
binding to or inhibition of off-target panel (>100 biochemical targets): did not exhibit any significant binding to, or inhibition of
mean fractional block ([2]; 30 µM): 0.108±0.037
mean fractional block ([2]; 100 µM): 0.198±0.018
IC50 ([2]; indicated by patch clamp fractional block): > 100 µM
Kp ([3]; brain/plasma, 25 mg/kg oral, read-out: brain to plasma AUC0–24 h ratio): 0.44
CL/F ([3]; plasma, 25 mg/kg oral): 1.53 mL/min/kg
Cmax ([3]; 25 mg/kg oral (nominal), plasma, read-out: Cmax): 18200 ng/mL
AUC(0-t) ([3]; 25 mg/kg oral, CSF, read-out: AUC0–24 h in the CSF): 14600 ng·h/mL
Cmax ([3]; 25 mg/kg oral, CSF, read-out: Cmax in the CSF): 1080 ng/mL
AUC(0-t) ([3]; 25 mg/kg oral, brain, read-out: AUC0–24 h in the brain): 129000 ng·h/mL
Cmax ([3]; 25 mg/kg oral, brain, read-out: Cmax in the brain): 8500 ng/mL
Tmax ([3]; 25 mg/kg oral, plasma): 8 h
AUC(0-t) ([3]; 25 mg/kg oral, plasma, read-out: AUC0–24 h): 291000 ng·h/mL
Cmax ([3]; oral dose of 10 mg/kg SCYX-7158, plasma, read-out: Cmax): 14300 ng/mL
time of Cmax ([4]; 10 mg/kg NG, plasma): 9.5 h
Kp ([4]; male, cynomolgus monkey, CSF/plasma, at each time point, read-out: CSF concentration as % of the plasma concentration): ~0.05
AUC(0-inf) ([4]; male, cynomolgus monkey, oral, 10 mg/kg SCYX-7158 NG, plasma): 460000 ng·h/mL
Cmax ([4]; male, cynomolgus monkey, oral, 10 mg/kg SCYX-7158 nasogastric (NG), plasma): 11000 ng/mL
bioavailability ([4]; male, cynomolgus monkey, plasma, po, 10 mg/kg NG, read-out: absolute oral bioavailability): 89%
CL/F ([4]; male, cynomolgus monkey, plasma, po, 10 mg/kg NG, read-out: oral clearance (Cl/F) (converted)): 0.417 mL/min/kg
clearance ([4]; male, cynomolgus monkey, plasma, 2 mg/kg IV): 0.367 mL/min/kg
Vd ([4]; male, cynomolgus monkey, plasma, 2 mg/kg IV, read-out: Vdss): 0.656 L/kg
AUC(0-inf) ([4]; male, cynomolgus monkey, 2 mg/kg IV, plasma): 94400 ng·h/mL
AUC(0-t) ([4]; male, cynomolgus monkey, 2 mg/kg IV, plasma, read-out: AUC0–24 h): 78800 ng·h/mL
brain AUC0–24 h ([5]; 4.3 mg/kg intravenous, brain): 5570 ng·h/mL
clearance ([5]; male, CD-1, mouse, plasma, 4.3 mg/kg intravenous, read-out: systemic clearance (CL) (converted)): 1.48 mL/min/kg
Vd ([5]; male, CD-1, mouse, plasma, 4.3 mg/kg intravenous, read-out: volume of distribution (Vdss)): 1.69 L/kg
Cmax ([5]; male, CD-1, mouse, oral dose of 56 mg/kg SCYX-7158, plasma): 18000 ng/mL
